pEC50: −log10 of the molar value.
Target: T1, GPR40 (Homo sapiens, UniProt O14842)
T1 construct: expressed in transfected cells
Experiment: GPR40 Activation Assay (Wash Free Fluo-8 Calcium Assay)
Type: cell-based
Conditions: HEK293 cells stably expressing GPR40; fluorescence intensity Ex=494 nm, Em=516 nm
Experimental: This test procedure substantially carried out in accordance with the HDB company's Wash Free Fluo-8 Calcium Assay Kits. HEK293 cells stably expressing GPR40 were selected in a media containing Neomycin/G418. The cells were plated at a concentration of 30 uL 15,000 cells per well in black 384-well clear bottom tissue culture treated plates. The cells were incubated for 24 h in a incubator with 5% CO2.
According to Wash Free Fluo-8 Calcium Assay Kits operating instruction, one component A was dissolved in 210 uL DMSO, one component B was dissolved in 2.4 mL component C. After a 200 mM probenecid solution was prepared, 40 μL component A, 400 μL component B, 200 μL 200 mM probenecid and […] component C were mixed to a 20 mL test solution.
After removal of medium from the black 384-well dear bottom tissue culture treated plates by centrifuge, the test solution was added at 30 uL/well and the plates were incubated for 60 mins at 37° C. All test compounds were diluted to appropriate concentrations in HBSS buffer. Compounds were added to the cells and the wells were read fluorescence intensity at Ex=494 nm, Em=516 nm and readings were taken for 2 mins with an interval of 1 s. The compounds dose-dependent curve and EC50 were obtained by the Graphpad Prism4 software.

T1 sequence (O14842 whole entry, species assumed): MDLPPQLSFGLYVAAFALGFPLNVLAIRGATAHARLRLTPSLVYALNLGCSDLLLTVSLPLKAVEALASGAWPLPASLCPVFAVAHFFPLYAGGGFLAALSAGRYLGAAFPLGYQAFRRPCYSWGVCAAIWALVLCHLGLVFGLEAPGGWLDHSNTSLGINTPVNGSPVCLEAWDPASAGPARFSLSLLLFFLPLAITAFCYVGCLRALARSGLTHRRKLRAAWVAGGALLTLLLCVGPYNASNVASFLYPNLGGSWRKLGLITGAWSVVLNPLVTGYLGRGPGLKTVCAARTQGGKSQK

| pEC50 | Compound |
| --- | --- |
| 6.00 | COCCCOc1cc(C)c(-c2cccc3c2CCC3Oc2ccc3c(c2)SC[C@H]3CC(=O)O)c(C)c1 (stereo partly drawn) [Example 53, 2-((3S)-6-((4-(4-(3-methoxypropoxy)-2,6-dlmethylphenyl)-2,3-dihydro-1H-inden-1-yl)oxy)-2,3-dihydrobenzo[b]thiophen-3-yl)acetic acid] |
| 5.90 | CSCCCOc1cc(C)c(-c2cccc3c2CCC3Oc2ccc3c(c2)SC[C@H]3CC(=O)O)c(C)c1 (stereo partly drawn) [Example 52, 2-((3S)-6-((4-(2,6-dimethyl-4-(3-(metylthio)porpoxy)phenyl)-2,3-dihydro-1H-inden-1-yl)oxy)-2,3-dihydrobenzo[b]thiophen-3-yl)acetic acid] |
| 6.06 | Cc1cc(OCCCS(C)(=O)=O)cc(C)c1-c1cccc2c1CCC2Oc1ccc2c(c1)SC[C@H]2CC(=O)O (stereo partly drawn) [Example 51, 2-((3S)-6-((4-(2,6-dimethyl-4-(3-(methylsulfonyl)propoxy)phenyl)-2,3-dihydro-1H-inden-1-yl)oxy)-2,3-dihydrobenzo[b]thiophen-3-yl)acetic acid] |

— patent US20160200734A1, “CARBOXYLIC ACID COMPOUNDS IN TREATMENT OF DIABETES MELLITUS” (FUJIAN HAIXI PHARMACEUTICALS CO., LTD., priority 2013, published 2016)
